# Experimental data taken from ChEMBL document CHEMBL5385913, “First-in-Class Dual EZH2-HSP90 Inhibitor Eliciting Striking Antiglioblastoma Activity In Vitro and In Vivo” (J Med Chem, 2024).
# The source made the active and inactive calls. No cut-off for these calls is given here.
# Key:
# GBM [1] = assay: Upregulation of HSPA8 gene expression in TMZ-resistant patient-derived human GBM cells by KEGG analysis; assay type: functional, cell-based
# GBM [2] = assay: Upregulation of HSP90AA1 gene expression in TMZ-resistant patient-derived human GBM cells by KEGG analysis; assay type: functional, cell-based
# GBM [3] = assay: Upregulation of HSPA4 gene expression in TMZ-resistant patient-derived human GBM cells by KEGG analysis; assay type: functional, cell-based
# GBM [4] = assay: Upregulation of HSPA1A gene expression in TMZ-resistant patient-derived human GBM cells by KEGG analysis; assay type: functional, cell-based
# GBM [5] = assay: Upregulation of HSPH gene expression in TMZ-resistant patient-derived human GBM cells by KEGG analysis; assay type: functional, cell-based
# GBM [6] = assay: Upregulation of ARF3 gene expression in TMZ-resistant patient-derived human GBM cells by KEGG analysis; assay type: functional, cell-based
# GBM [7] = assay: Upregulation of EHD1 gene expression in TMZ-resistant patient-derived human GBM cells by KEGG analysis; assay type: functional, cell-based
# GBM [8] = assay: Upregulation of SERPINE1 gene expression in TMZ-resistant patient-derived human GBM cells by KEGG analysis; assay type: functional, cell-based
# GBM [9] = assay: Upregulation of CTNNB1 gene expression in TMZ-resistant patient-derived human GBM cells by KEGG analysis; assay type: functional, cell-based
# GBM [10] = assay: Upregulation of ACTB gene expression in TMZ-resistant patient-derived human GBM cells by KEGG analysis; assay type: functional, cell-based
# GBM [11] = assay: Upregulation of ZYX gene expression in TMZ-resistant patient-derived human GBM cells by KEGG analysis; assay type: functional, cell-based
# GBM [12] = assay: Downregulation of RPS6 gene expression in TMZ-resistant patient-derived human GBM cells by KEGG analysis; assay type: functional, cell-based
# GBM [13] = assay: Downregulation of RPL35 gene expression in TMZ-resistant patient-derived human GBM cells by KEGG analysis; assay type: functional, cell-based
# GBM [14] = assay: Downregulation of RPL26 gene expression in TMZ-resistant patient-derived human GBM cells by KEGG analysis; assay type: functional, cell-based
# GBM [15] = assay: Downregulation of RPS10 gene expression in TMZ-resistant patient-derived human GBM cells by KEGG analysis; assay type: functional, cell-based
# GBM [16] = assay: Downregulation of MCM7 gene expression in TMZ-resistant patient-derived human GBM cells by KEGG analysis; assay type: functional, cell-based
# GBM [17] = assay: Downregulation of MCM3 gene expression in TMZ-resistant patient-derived human GBM cells by KEGG analysis; assay type: functional, cell-based
# GBM [18] = assay: Downregulation of YWHAG gene expression in TMZ-resistant patient-derived human GBM cells by KEGG analysis; assay type: functional, cell-based
# GBM [19] = assay: Downregulation of HNRNPA3 gene expression in TMZ-resistant patient-derived human GBM cells by KEGG analysis; assay type: functional, cell-based
# GBM [20] = assay: Downregulation of PCBP1 gene expression in TMZ-resistant patient-derived human GBM cells by KEGG analysis; assay type: functional, cell-based
# GBM [21] = assay: Downregulation of SRSF7 gene expression in TMZ-resistant patient-derived human GBM cells by KEGG analysis; assay type: functional, cell-based
# GBM [22] = assay: Inhibition of cell proliferation in TMZ-resistant patient-derived human GBM cells at 2 uM incubated for 48 hrs; assay type: functional, cell-based
# GBM [23] = assay: Suppression of cell division in TMZ-resistant patient-derived human GBM cells by GSEA analysis; assay type: functional, cell-based
# GBM [24] = assay: Suppression of DNA repair in TMZ-resistant patient-derived human GBM cells by GSEA analysis; assay type: functional, cell-based
# GBM [25] = assay: Upregulation of apoptosis-related gene expression in TMZ-resistant patient-derived human GBM cells; assay type: functional, cell-based
# GBM [26] = assay: Upregulation of necrosis-related gene expression in TMZ-resistant patient-derived human GBM cells; assay type: functional, cell-based
# GBM [27] = assay: Downregulation of M phase-related gene expression in TMZ-resistant patient-derived human GBM cells; assay type: functional, cell-based
# GBM [28] = assay: Downregulation of kinetochore-related gene expression in TMZ-resistant patient-derived human GBM cells; assay type: functional, cell-based
# GBM [29] = assay: Downregulation of spindle-related gene expression in TMZ-resistant patient-derived human GBM cells; assay type: functional, cell-based
# GBM [30] = assay: Downregulation of CDK1 level in TMZ-resistant patient-derived human GBM cells upto 5 uM incubated for 48 to 72 hrs by Western blot analysis; assay type: functional, cell-based; settings: time 48-72 hrs
# GBM [31] = assay: Downregulation of cyclin B level in TMZ-resistant patient-derived human GBM cells upto 5 uM incubated for 48 to 72 hrs by Western blot analysis; assay type: functional, cell-based; settings: time 48-72 hrs
# GBM [32] = assay: Downregulation of CENPF level in TMZ-resistant patient-derived human GBM cells upto 5 uM incubated for 48 to 72 hrs by Western blot analysis; assay type: functional, cell-based; settings: time 48-72 hrs
# GBM [33] = assay: Downregulation of CENPE level in TMZ-resistant patient-derived human GBM cells upto 5 uM incubated for 48 to 72 hrs by Western blot analysis; assay type: functional, cell-based; settings: time 48-72 hrs
# GBM [34] = assay: Downregulation of CENPA level in TMZ-resistant patient-derived human GBM cells upto 5 uM incubated for 48 to 72 hrs by Western blot analysis; assay type: functional, cell-based; settings: time 48-72 hrs
# GBM [35] = assay: Downregulation of CENPI level in TMZ-resistant patient-derived human GBM cells upto 5 uM incubated for 48 to 72 hrs by Western blot analysis; assay type: functional, cell-based; settings: time 48-72 hrs
# GBM [36] = assay: Induction of cell cycle arrest in TMZ-resistant patient-derived human GBM cells at 1 uM incubated for 24 to 72 hrs by PI staining based flow cytometry; assay type: functional; settings: time 24-72 hrs
# [37] = Downregulation of CENPF level in TMZ-resistant patient-derived human GBM cells assessed as fold change at 2 uM by GlioVis analysis (reference value: 6.6); assay type: functional
# [38] = Downregulation of NASP level in TMZ-resistant patient-derived human GBM cells assessed as fold change at 2 uM by GlioVis analysis (reference value: 5.08); assay type: functional
# [39] = Downregulation of CENPP level in TMZ-resistant patient-derived human GBM cells assessed as fold change at 2 uM by GlioVis analysis (reference value: 2.18); assay type: functional
compound,measurement,setting,value
CCN(c1cc(-c2cccc(N(C)C(=O)c3cc(C(C)C)c(O)cc3O)c2)cc(C(=O)NCc2c(C)cc(C)[nH]c2=O)c1C)C1CCOCC1,Activity,GBM [1],Active
same,Activity,GBM [2],Active
same,Activity,GBM [3],Active
same,Activity,GBM [4],Active
same,Activity,GBM [5],Active
same,Activity,GBM [6],Active
same,Activity,GBM [7],Active
same,Activity,GBM [8],Active
same,Activity,GBM [9],Active
same,Activity,GBM [10],Active
same,Activity,GBM [11],Active
same,Activity,GBM [12],Active
same,Activity,GBM [13],Active
same,Activity,GBM [14],Active
same,Activity,GBM [15],Active
same,Activity,GBM [16],Active
same,Activity,GBM [17],Active
same,Activity,GBM [18],Active
same,Activity,GBM [19],Active
same,Activity,GBM [20],Active
same,Activity,GBM [21],Active
same,inhibition,GBM [22],Active
same,Activity,GBM [23],Active
same,Activity,GBM [24],Active
same,Activity,GBM [25],Active
same,Activity,GBM [26],Active
same,Activity,GBM [27],Active
same,Activity,GBM [28],Active
same,Activity,GBM [29],Active
same,Activity,GBM [30],Active
same,Activity,GBM [31],Active
same,Activity,GBM [32],Active
same,Activity,GBM [33],Active
same,Activity,GBM [34],Active
same,Activity,GBM [35],Active
same,Activity,GBM [36],Active
same,fold change (FC),[37],3.46
same,fold change (FC),[38],3.41
same,fold change (FC),[39],1.27
